Earlier results in patent publication US4803081A, “New pharmaceutical preparations with extended release” (Aktiebolaget Hassle, priority 1986, dated 1989).
Converted amounts (≈) assume the structure as drawn. Where two headings read alike, the source gives them in different places.

Details: for solubility (in words): very low = less than 0.1 per cent by weight in water

CCOC(=O)C1=C(C)NC(C)=C(C(=O)OC)C1c1cccc(Cl)c1Cl (centres unmarked) [felodipine, 4-(2,3-dichlorophenyl)-1,4-dihydro-2,6-dimethyl-3,5-pyridinedicarboxylic acid ethyl methyl ester]
solubility (in words): very low solubility | solubility (in words) (listed as Felodipine): practically insoluble | solubility in water (water): 0.5 µg/mL (≈ 1.3 µM)

COC1=CC(=O)C[C@@H](C)[C@]12Oc1c(Cl)c(OC)cc(OC)c1C2=O [griseofulvin]
solubility (in words): very low solubility

O=C1NC(=O)C(c2ccccc2)(c2ccccc2)N1 [phenytoin]
solubility (in words): very low solubility
